Source: patent publication EP0810245A1, “Catalyst for low temperature cure of blocked isocyanates” (ELF ATOCHEM NORTH AMERICA, INC., priority 1996, dated 1997)

How the values were obtained:
[1] = Gel time by Brookfield viscosity (time to 2500 cps), masterbatch of Examples 1-8 and A-J; set-up: key to Gel Time @250F (120C): minutes to reach target viscosity (gel time); GEL TIME @ 130°C: unit: min; conditions: for GEL TIME @ 130°C: 0.16%Sn, time to reach 2500 cps (gel times in mins)
Experimental: (§1) Solids content was maintained between 50-60%.
(§2) Comparison of catalyst activity was determined by monitoring viscosity as a function of cure time. A Brookfield viscometer fitted with a heated cell was connected to a strip chart recorder. A 10 gram aliquot of the formulation with the desired catalyst was placed in the chamber and rapidly heated to the test temperature. A #27 speed spindle was immersed into the solution and the initial viscosity measured. The rate of increase in viscosity was monitored until a viscosity of 2500 cps was achieved. In almost all the examples the formulation gelled at this viscosity. The time required to reach this viscosity was termed "gel time" at the test temperature. This technique provides information on the time required to reach a target viscosity and on the rate of increase in viscosity for a given system and compares the relative reactivity of different catalysts in a specific formulation at the same temperature. Variability in gel time is +/- 0.5-1.0 mins and is limited by the accuracy of weighing of the catalyst. […] Gel time measurements were then correlated with film properties.
The components were stirred to ensure complete solubility, usually from 2 to 4 hours. • Desmophen A565 (215g, 42.9 wt%) • Desmodur BL 3175 A (140g, 27.9 wt%) • methyl amyl ketone (58.5g, 11.7 wt%) • methy isobutyl ketone (58.5g, 11.7 wt%) • propylene glycol methyl ether acetate (29.0g, 5.8 wt%)
(§3) For each evaluation, a 10g aliquot of this master batch was removed and the appropriate catalyst added.

[2] = Gel time by Brookfield viscosity (time to 2500 cps), masterbatch of Examples 9-12 and K, Zn salts as co-catalysts; conditions: 0.16 %Sn, co-catalyst 0.07 %Zn where used
Experimental: as §1, §2
In comparative example K and operative examples 9 to 12 a masterbatch of the following mixture was prepared. The components were stirred to ensure complete solubility, usually from 2 to 4 hours. • Desmophen A565 215g • Desmodur BL 3175 A 140g • Methyl isobutyl ketone 146.4g
as §3

Molecule | Gel Time @250F (120C) ([1]; 0.16 %Sn) | Gel Time @266F (130C) ([1]; 0.16 %Sn) [min] | GEL TIME @ 130°C [1] | Gel Time @250F (120C) ([1]; 0.20 %Sn) | Gel Time @266F (130C) ([1]; 0.20 %Sn) [min] | Gel Time @ 120°C [2] [min] | Gel Time @ 125°C [2] [min]
Dibutyl Diacetoxy Stannox n=3 [Example 1] | 36.1 | 17.2 | 17.2 | – | – | – | –
Dibutyl Diformyloxy Stannox (n=3) [Example 4] | – | – | – | 27.5 | 15.9 | – | –
Dibutyl Diformyloxy Stannox (n=6) [Example 5] | – | – | – | 25.6 | – | – | –
Dibutyl Di Octylmaleate Stannox n=6 [Example 3] | – | – | 20.4 | – | – | – | –
CCCCCCCCCCCC(=O)[O][Sn]([CH2]CCC)([CH2]CCC)[O]C(=O)CCCCCCCCCCC [A, Dibutyl Sn Dilaurate, reference compound] | – | – | 22.2 | 48.7 | – | 45 | 29
Dibutyl Diformyloxy Stannox (n=14) [Example 6] | – | – | – | 24.1 | 14.4 | 29 | 19
CCC[CH2][Sn]([CH2]CCC)([O]C(C)=O)[O]C(C)=O [B, Dibutyl Sn Diacetate, reference compound] | 45 | 21.3 | 21.2 | – | – | – | –
Dibutyl Diacetoxy Stannox n=6 [Example 2] | 32.5 | 16.5 | 16.4 | – | – | – | –
CCC[CH2][Sn](=[O])[CH2]CCC [C, Dibutyl Sn Oxide, reference compound] | – | 23.2 | 23.2 | – | – | – | –
CCC[CH2][Sn]([CH2]CCC)([O]C(C)=O)[O][Sn]([CH2]CCC)([CH2]CCC)[O]C(C)=O [D, Dibutyl Diacetoxy Stannox n=0, reference compound] | 38 | 18.6 | 18.6 | – | – | – | –
